Test results as given in patent publication US11713341B1, “Antimicrobial NCR13 variant peptides” (Vestaron Corporation, priority 2022, dated 2023).
Where a SMILES comes first, the peptide text is derived from it.

Test system: Botrytis cinerea
Assay: Antimicrobial bioassay (Botrytis cinerea): growth inhibition by OD600
Assay type: cell-based
Conditions: for Activity ratio to NCR13a: anti-Botrytis cinerea activity (IC50) relative to comparator NCR13a; for anti-Botrytis activities relative to NCR13a: Botrytis cinerea growth, comparison with NCR13a
Description: The antimicrobial effect of the NCR13 variant peptides (NVPs) of the present disclosure were evaluated against the fungal species, Botrytis cinerea. […] The growth of Botrytis cinerea was then assessed via OD600 nm after incubation with a given NVP at room temperature after 96 hours. The IC50 of each peptide analyzed is shown in ppm.
The antimicrobial effect of the NCR13 variant peptides (NVPs) of the present disclosure were evaluated against the fungal species, Botrytis cinerea. […] The growth of Botrytis cinerea was then assessed via OD600 nm after incubation with a given NVP at room temperature after 96 hours.
The NVPs assessed were as follows: NVPM3 (+L) (SEQ ID NO: 5); NVPM5 (+M) (SEQ ID NO: 7); NVPM6 (+F) (SEQ ID NO: 8); NVPM7 (+W) (SEQ ID NO: 9); NVPM9 (+S) (SEQ ID NO: 11); NVPM11 (+Y) (SEQ ID NO: 13); NVPM14 (+D) (SEQ ID NO: 16); and NVPM15 (+E) (SEQ ID NO: 17).
NVPs having an amino acid sequence of SEQ ID NOs: 5, 7, 8, 9, 11, 13, 16, and 17 were generated as described above in Example 1. The peptide, NCR13a, having an amino acid sequence of: […] (SEQ ID NO: 2) was selected as a comparator peptide, with which the antifungal activity of the foregoing NVPs was compared.
The fungal species was Botrytis cinerea was cultured in potato dextrose agar plates. Fungal spores were collected from the agar plates and suspended into de-ionized water, followed by enumeration in a Petroff-Hausser counting chamber (VWR).
The 96-well plates were incubated at room temperature for 96 hours without shaking. The OD600 of the culture plate was determined using SpectraMax plate reader. Relative OD600 was determined by normalizing cell growth to control wells containing neither NVPs nor NCR13a. The OD600 was used to determine IC50.

Row | Compound | IC50 (ppm) (amount required to achieve IC50 in Botrytis cinerea cells, growth by OD600 after 96 hours at room temperature in synthetic fungal medium, 2-fold serial dilution) | Activity ratio to NCR13a | anti-Botrytis activities relative to NCR13a
1 | CC[C@H](C)[C@H](NC(=O)[C@H](CS)NC(=O)[C@H](CCCCN)NC(=O)[C@@H]1CCCN1C(=O)[C@@H](NC(=O)[C@H](CCCCN)NC(=O)[C@@H]1CCCN1C(=O)[C@H](CCCCN)NC(=O)[C@H](CCCNC(=N)N)NC(=O)[C@H](CS)NC(=O)[C@H](C)NC(=O)[C@H](Cc1ccccc1)NC(=O)[C@H](CCCCN)NC(=O)[C@H](CCCCN)NC(=O)[C@H](CS)NC(=O)[C@H](CC(=O)O)NC(=O)[C@H](CCCCN)NC(=O)[C@H](CC(=O)O)NC(=O)[C@H](CO)NC(=O)[C@H](CCC(N)=O)NC(=O)[C@H](CS)NC(=O)[C@@H]1CCCN1C(=O)[C@H](CCCCN)NC(=O)[C@@H](NC(=O)CN)[C@@H](C)O)C(C)C)C(=O)N[C@@H](CC(N)=O)C(=O)NCC(=O)N[C@@H](Cc1ccccc1)C(=O)N[C@@H](CS)C(=O)N[C@@H](CCCCN)C(=O)N[C@@H](CS)C(=O)N[C@H](C(=O)N[C@@H](CCCNC(=N)N)C(=O)O)C(C)C [NCR13a, reference compound] (H-GTKPCQSDKDCKKFACRKPKVPKCINGFCKCVR-OH; N-terminus and C-terminus assumed) | 2.36 ppm | 1 | 
2 | CC[C@H](C)[C@H](NC(=O)[C@H](CS)NC(=O)[C@H](CCCCN)NC(=O)[C@@H]1CCCN1C(=O)[C@@H](NC(=O)[C@H](CCCCN)NC(=O)[C@@H]1CCCN1C(=O)[C@H](CCCCN)NC(=O)[C@H](CCCNC(=N)N)NC(=O)[C@H](CS)NC(=O)[C@H](C)NC(=O)[C@H](Cc1ccccc1)NC(=O)[C@H](CCCCN)NC(=O)[C@H](CCCCN)NC(=O)[C@H](CS)NC(=O)[C@H](CC(=O)O)NC(=O)[C@H](CCCCN)NC(=O)[C@H](CC(=O)O)NC(=O)[C@H](CO)NC(=O)[C@H](CCC(N)=O)NC(=O)[C@H](CS)NC(=O)[C@@H]1CCCN1C(=O)[C@H](CCCCN)NC(=O)[C@@H](NC(=O)[C@H](C)N)[C@@H](C)O)C(C)C)C(=O)N[C@@H](CC(N)=O)C(=O)NCC(=O)N[C@@H](Cc1ccccc1)C(=O)N[C@@H](CS)C(=O)N[C@@H](CCCCN)C(=O)N[C@@H](CS)C(=O)N[C@H](C(=O)N[C@@H](CCCNC(=N)N)C(=O)O)C(C)C [NVPM1] (H-ATKPCQSDKDCKKFACRKPKVPKCINGFCKCVR-OH; N-terminus and C-terminus assumed) |  | 2.43 | 
3 | CC[C@H](C)[C@H](NC(=O)[C@H](CS)NC(=O)[C@H](CCCCN)NC(=O)[C@@H]1CCCN1C(=O)[C@@H](NC(=O)[C@H](CCCCN)NC(=O)[C@@H]1CCCN1C(=O)[C@H](CCCCN)NC(=O)[C@H](CCCNC(=N)N)NC(=O)[C@H](CS)NC(=O)[C@H](C)NC(=O)[C@H](Cc1ccccc1)NC(=O)[C@H](CCCCN)NC(=O)[C@H](CCCCN)NC(=O)[C@H](CS)NC(=O)[C@H](CC(=O)O)NC(=O)[C@H](CCCCN)NC(=O)[C@H](CC(=O)O)NC(=O)[C@H](CO)NC(=O)[C@H](CCC(N)=O)NC(=O)[C@H](CS)NC(=O)[C@@H]1CCCN1C(=O)[C@H](CCCCN)NC(=O)[C@@H](NC(=O)[C@@H](N)CC(C)C)[C@@H](C)O)C(C)C)C(=O)N[C@@H](CC(N)=O)C(=O)NCC(=O)N[C@@H](Cc1ccccc1)C(=O)N[C@@H](CS)C(=O)N[C@@H](CCCCN)C(=O)N[C@@H](CS)C(=O)N[C@H](C(=O)N[C@@H](CCCNC(=N)N)C(=O)O)C(C)C [NVPM3] (H-LTKPCQSDKDCKKFACRKPKVPKCINGFCKCVR-OH; N-terminus and C-terminus assumed) |  | 4.14 | improved anti-Botrytis activities relative to NCR13a
4 | CC[C@H](C)[C@H](NC(=O)[C@H](CS)NC(=O)[C@H](CCCCN)NC(=O)[C@@H]1CCCN1C(=O)[C@@H](NC(=O)[C@H](CCCCN)NC(=O)[C@@H]1CCCN1C(=O)[C@H](CCCCN)NC(=O)[C@H](CCCNC(=N)N)NC(=O)[C@H](CS)NC(=O)[C@H](C)NC(=O)[C@H](Cc1ccccc1)NC(=O)[C@H](CCCCN)NC(=O)[C@H](CCCCN)NC(=O)[C@H](CS)NC(=O)[C@H](CC(=O)O)NC(=O)[C@H](CCCCN)NC(=O)[C@H](CC(=O)O)NC(=O)[C@H](CO)NC(=O)[C@H](CCC(N)=O)NC(=O)[C@H](CS)NC(=O)[C@@H]1CCCN1C(=O)[C@H](CCCCN)NC(=O)[C@@H](NC(=O)[C@@H](N)CCSC)[C@@H](C)O)C(C)C)C(=O)N[C@@H](CC(N)=O)C(=O)NCC(=O)N[C@@H](Cc1ccccc1)C(=O)N[C@@H](CS)C(=O)N[C@@H](CCCCN)C(=O)N[C@@H](CS)C(=O)N[C@H](C(=O)N[C@@H](CCCNC(=N)N)C(=O)O)C(C)C [NVPM5] (H-MTKPCQSDKDCKKFACRKPKVPKCINGFCKCVR-OH; N-terminus and C-terminus assumed) |  | 2.74 | improved anti-Botrytis activities relative to NCR13a
5 | CC[C@H](C)[C@H](NC(=O)[C@H](CS)NC(=O)[C@H](CCCCN)NC(=O)[C@@H]1CCCN1C(=O)[C@@H](NC(=O)[C@H](CCCCN)NC(=O)[C@@H]1CCCN1C(=O)[C@H](CCCCN)NC(=O)[C@H](CCCNC(=N)N)NC(=O)[C@H](CS)NC(=O)[C@H](C)NC(=O)[C@H](Cc1ccccc1)NC(=O)[C@H](CCCCN)NC(=O)[C@H](CCCCN)NC(=O)[C@H](CS)NC(=O)[C@H](CC(=O)O)NC(=O)[C@H](CCCCN)NC(=O)[C@H](CC(=O)O)NC(=O)[C@H](CO)NC(=O)[C@H](CCC(N)=O)NC(=O)[C@H](CS)NC(=O)[C@@H]1CCCN1C(=O)[C@H](CCCCN)NC(=O)[C@@H](NC(=O)[C@@H](N)Cc1ccccc1)[C@@H](C)O)C(C)C)C(=O)N[C@@H](CC(N)=O)C(=O)NCC(=O)N[C@@H](Cc1ccccc1)C(=O)N[C@@H](CS)C(=O)N[C@@H](CCCCN)C(=O)N[C@@H](CS)C(=O)N[C@H](C(=O)N[C@@H](CCCNC(=N)N)C(=O)O)C(C)C [NVPM6] (H-FTKPCQSDKDCKKFACRKPKVPKCINGFCKCVR-OH; N-terminus and C-terminus assumed) |  | 1.82 | improved anti-Botrytis activities relative to NCR13a
6 | CC[C@H](C)[C@H](NC(=O)[C@H](CS)NC(=O)[C@H](CCCCN)NC(=O)[C@@H]1CCCN1C(=O)[C@@H](NC(=O)[C@H](CCCCN)NC(=O)[C@@H]1CCCN1C(=O)[C@H](CCCCN)NC(=O)[C@H](CCCNC(=N)N)NC(=O)[C@H](CS)NC(=O)[C@H](C)NC(=O)[C@H](Cc1ccccc1)NC(=O)[C@H](CCCCN)NC(=O)[C@H](CCCCN)NC(=O)[C@H](CS)NC(=O)[C@H](CC(=O)O)NC(=O)[C@H](CCCCN)NC(=O)[C@H](CC(=O)O)NC(=O)[C@H](CO)NC(=O)[C@H](CCC(N)=O)NC(=O)[C@H](CS)NC(=O)[C@@H]1CCCN1C(=O)[C@H](CCCCN)NC(=O)[C@@H](NC(=O)[C@@H](N)Cc1c[nH]c2ccccc12)[C@@H](C)O)C(C)C)C(=O)N[C@@H](CC(N)=O)C(=O)NCC(=O)N[C@@H](Cc1ccccc1)C(=O)N[C@@H](CS)C(=O)N[C@@H](CCCCN)C(=O)N[C@@H](CS)C(=O)N[C@H](C(=O)N[C@@H](CCCNC(=N)N)C(=O)O)C(C)C [NVPM7] (H-WTKPCQSDKDCKKFACRKPKVPKCINGFCKCVR-OH; N-terminus and C-terminus assumed) |  | 2.71 | improved anti-Botrytis activities relative to NCR13a
7 | CC[C@H](C)[C@H](NC(=O)[C@H](CS)NC(=O)[C@H](CCCCN)NC(=O)[C@@H]1CCCN1C(=O)[C@@H](NC(=O)[C@H](CCCCN)NC(=O)[C@@H]1CCCN1C(=O)[C@H](CCCCN)NC(=O)[C@H](CCCNC(=N)N)NC(=O)[C@H](CS)NC(=O)[C@H](C)NC(=O)[C@H](Cc1ccccc1)NC(=O)[C@H](CCCCN)NC(=O)[C@H](CCCCN)NC(=O)[C@H](CS)NC(=O)[C@H](CC(=O)O)NC(=O)[C@H](CCCCN)NC(=O)[C@H](CC(=O)O)NC(=O)[C@H](CO)NC(=O)[C@H](CCC(N)=O)NC(=O)[C@H](CS)NC(=O)[C@@H]1CCCN1C(=O)[C@H](CCCCN)NC(=O)[C@@H](NC(=O)[C@@H](N)CO)[C@@H](C)O)C(C)C)C(=O)N[C@@H](CC(N)=O)C(=O)NCC(=O)N[C@@H](Cc1ccccc1)C(=O)N[C@@H](CS)C(=O)N[C@@H](CCCCN)C(=O)N[C@@H](CS)C(=O)N[C@H](C(=O)N[C@@H](CCCNC(=N)N)C(=O)O)C(C)C [NVPM9] (H-STKPCQSDKDCKKFACRKPKVPKCINGFCKCVR-OH; N-terminus and C-terminus assumed) |  | 1.66 | improved anti-Botrytis activities relative to NCR13a
